Values of other authors as cited in US10413482B2, “Delamination resistant pharmaceutical glass containers containing active pharmaceutical ingredients” (Corning Incorporated, priority 2011, dated 2019).

Key:
[1] = for duration of action: after injection
[2] = system: patients with moderate to severe ulcerative colitis; conditions: in vivo
[3] = once-daily
[4] = system: patients whose asthma cannot be adequately controlled with inhalable glucocorticoids; conditions: in vivo
[5] = not given; remark: listed apart in the source
[6] = system: patients with acute coronary syndrome (ACS); conditions: in vivo
[7] = system: adults with late-onset LAL Deficiency

For `[Cl][223Ra][Cl]` [Radium-223, Radium-223 dichloride], the half-life is given as 11.4 days.

In the case of insulin degludec, the duration of action [1] is given as “more than 24 hours”.

In the case of “Vedolizumab: humanized monoclonal antibody targeting α4β7 integrin”, the “safety and clinical remission” value [2] is given as “safe and effective for inducing and maintaining clinical remission”.

For “insulin regular: formulation of recombinant insulin structurally identical to the insulin produced by the human pancreas”, the duration of action [1] is given as “approximately 8 hours” and the “onset of pharmacologic effect” value ([1]; after subcutaneous administration) is given as “approximately one-half”.

In the case of lixisenatide, the tolerability [3] is given as “well-tolerated” and the glycemic control ([3]; one-step dose increase, single maintenance dose) is given as “significantly improved glycemic control”.

For Insulin detemir, the duration of action [1] is given as “up to 24 hours”.

In the case of “lebrikizumab: humanized monoclonal antibody against interleukin-13 (IL-13)”, the symptoms of asthma [4] is listed as “significantly decrease the symptoms of asthma”.

In the case of relaxin, the shelf-life ([5]; approximately pH 5, 5° C., acceptable reduction of 10% in the HPLC main peak area) is given as “at least 2 years”.

For `COC(=O)[C@H](Cc1cccc(C(=N)N)c1)[C@@H](C)NC(=O)c1ccc(-c2cc[n+]([O-])cc2)cc1` (mixture of isomers) [Otamixaban, reference compound], the “degradation during sterilization and storage” value ([5]; formulations at pH between 3 and 5) is given as “decreased otamixaban degradation during sterilization and storage” and the major coronary complications [6] is given as “reduce major coronary complications”.

B1: SBC-102: recombinant form of the human LAL enzyme (protein, UniProt P38571 77-399, looked up)
Lysosomal acid …: GPKPVVFLQHGLLADSSNWVTNLANSSLGFILADAGFDVWMGNSRGNTWSRKHKTLSVSQDEFWAFSYDEMAKYDLPASINFILNKTGQEQVYYVGHSQGTTIGFIAFSQIPELAKRIKMFFALGPVASVAFCTSPMAKLGRLPDHLIKDLFGDKEFLPQSAFLKWLGTHVCTHVILKELCGNLCFLLCGFNERNLNMSRVDVYTTHSPAGTSVQNMLHWSQAVKFQKFQAFDWGSSAKNYFHYNQSYPPTYNVKDMLVPTAVWSGGHDWLADVYDVNILLTQITNLVFHESIPEWEHLDFIWGLDAPWRLYNKIINLMRKYQ
For B1, the LDL ([7]; same time period) is given as “a reduction in LDL was also observed”, the “total cholesterol, HDL cholesterol, and triglycerides” value ([7]; versus original baseline, p<0.05) is given as “significantly improved” and the liver transaminase levels ([7]; weekly then every other week infusions) is given as “sustained impact of SBC-102 on reducing liver transaminase levels”.
